The text below walks through data of US20080194673A1, “Environment-Friendly Pollution-Proof Agent” (priority 2004, published 2008).

One may read the LD50 as the dose expected to kill half of the subjects tested. By LC50 is commonly meant the concentration that kills 50% of the test population.

≈ marks a conversion by molar mass, not a printed value.

For one data set, the system named is mice. The data set is described as follows: safety test, single administration to mice, observed for 7 days. Format: in vivo, mouse. Conditions: 10 mg/kg, 10 mice per group. On the procedure:
Each of hexadecane, octadecane, eicosane, 1-eicosanol, 1-pentadecanol, dibutyl phthalate, dioctyl phthalate, diisononyl phthalate, dicyclohexyl phthalate, and 6-formyl-3,4-dehydro-2,8-dimethyl-2-(3′,6′-dienyl-8′-hydroxy-4′-methylnonane)-2H-1-benzopyrane is dissolved in dimethylsulfoxide (DMSO) and diluted with water.

Another data set has as its system Aspergillus niger. The data set is described as follows: minimum inhibitory concentration (MIC) by two-fold serial dilution in nutrient broth. Conditions: 30° C., 48 hours. Format: cell-based. The text has this: (§1) A liquid medium obtained by diluting PAGS by two-fold serial dilution was placed on a 96-multiwell plate and inoculated with 10^4 cfu/ml of microorganisms. […] The liquid medium used in the test was a nutrient broth (Difco).

The test system of a further data set is Staphylococcus aureus. The data set is described as above. Format: cell-based. As to conditions: 30° C., 48 hours.
Description: as §1

The next data set has as its system Enteromorpha spores. Nature of the data set: inhibitory activity test against the mobility of Enteromorpha spores (Sargassum confusum fractions, Tables 5-8). The data set is classed as cell-based.
A further data set relates to spores of Ulva pertusa. Nature of the data set: inhibitory effect test against the mobility of the spores of Ulva pertusa (Example 2 fractions). The data set is classed as cell-based. As to the method:
The effects of the fractions I-VI on the inhibition of attachment of fouling organisms were tested on Ulva pertusa, one of typical fouling algae. Ulva pertusa was collected in Kyongpodae, Kangnung-city, Kangwon-Do, Korea. The collected seaweed was transported to a laboratory in which only Ulva pertusa was screened. In order to remove fouling organisms, the screened algae were treated three times with supersonic waves for 1 minute for each time, and then washed clean with sterilized seawater. The washed algae were simply sterilized by immersion in a mixed solution of 1% betadine and 2% trition X-100 for 1 minute, followed by semi-drying. The semi-dried Ulva pertusa was added to sterilized seawater and placed in a 80 μmol m^−2s^−, 20° C. incubator to induce the release of spores.
10 μl of dimethyl sulfoxide (DMSO) was placed in a prepared tube, to which the seawater having spores released therein was then added. […] Before inoculation with each fraction at each dilution concentration, the movement of spores in the seawater was examined and the result was used as a comparison with a control group.

The nature of the next data set: in vivo. On the procedure:
Methyl stearate is an opaque white-colored crystal and has the following physical properties: a melting point of 40-42° C., and a boiling point of 181-182° C.

Data set [1] in a line: oral toxicity of methyl palmitate in mice. As to conditions: mouse, in vivo, administered orally to mice.
In a further data set the test system is human body. As to conditions: in vivo.
Data set [2] is described as follows: fish toxicity against water. Conditions: Blugil fish (a kind of trout), in vivo, other: exposure in water. As to the method: The physical properties of methyl palmitate are as follows: a melting point of 32-34° C., a boiling point of 163-164° C., and a density of 0.852. […] Blugil fish which is a kind of trout was tested for toxicity against water, the result was as follows: LC50=1000 ml/l.

The next data set relates to eyes of rabbits. As to conditions: rabbit, in vivo.
Where [3] appears, read: ratio 1:0 (not explained; test of PAGS).
Setting [4] is: ratio 3:1 (not explained; test of PAGS).

Regarding “6-formyl-3,4-dehydro-2,8-dimethyl-2-(3′,6′-dienyl-8′-hydroxy-4′-methylnonane)-2H-1-benzopyrane”, the “death of the mice” value in the data set on mice is recorded as “no death”. In addition, the “MIC Aspergillus niger 1:0” value in the data set on Aspergillus niger (setting [3]) is 10. Besides, in the data set on Aspergillus niger (setting [4]), the “MIC Aspergillus niger 3:1” value was found to be 2. Moreover, in the data set with Staphylococcus aureus (setting [3]), the “MIC Staphylococcus aureus 1:0” value was found to be 4. The “MIC Staphylococcus aureus 3:1” value in the data set on Staphylococcus aureus (setting [4]) is given as 1. The “Activity (inhibition of the mobility of spores)” value in the data set with Enteromorpha spores (125 μg/ml), in the data set with Enteromorpha spores (250 μg/ml), in the data set with Enteromorpha spores (500 μg/ml), in the data set with Enteromorpha spores (1,000 μg/ml), in the data set on Enteromorpha spores (2,000 μg/ml) and in the data set with Enteromorpha spores (4,000 μg/ml) was “++++ (more than 95% inhibition of the mobility of spores)” throughout.
Regarding `CCCCCCCCOC(=O)c1ccccc1C(=O)OCCCCCCCC` [F], the Mobility inhibitory activity result in the data set on spores of Ulva pertusa (125 μg/ml), in the data set with spores of Ulva pertusa (250 μg/ml), with spores of Ulva pertusa (500 μg/ml), in the data set on spores of Ulva pertusa (1,000 μg/ml), with spores of Ulva pertusa (2,000 μg/ml) and in the data set on spores of Ulva pertusa (4,000 μg/ml) was “++++ (more than 95% inhibition of the mobility of spores)” each time.
`CCCCCCCCCCCCCCCO` [1-pentadecanol]: the “death of the mice” value with mice is reported as “no death”.
Take `O=C(OC1CCCCC1)c1ccccc1C(=O)OC1CCCCC1` [H]: the Mobility inhibitory activity result in the data set on spores of Ulva pertusa (125 μg/ml), in the data set on spores of Ulva pertusa (250 μg/ml), in the data set on spores of Ulva pertusa (500 μg/ml), with spores of Ulva pertusa (1,000 μg/ml), with spores of Ulva pertusa (2,000 μg/ml) and with spores of Ulva pertusa (4,000 μg/ml) was “++++ (more than 95% inhibition of the mobility of spores)” throughout.
On to `CC(C)CCCCCCOC(=O)c1ccccc1C(=O)OCCCCCCC(C)C` [diisononyl phthalate], for which, in the data set on mice, the “death of the mice” value is “no death”.
The same measure, in the same setting: the entry for `CCCCCCCCCCCCCCCCCCCCO` [Example 1-eicosanol, 1-eicosanol] is “no death”.
As to `CCCCOC(=O)c1ccccc1C(=O)OCCCC` [E], the Mobility inhibitory activity entry in the data set on spores of Ulva pertusa (125 μg/ml), in the data set on spores of Ulva pertusa (250 μg/ml), in the data set with spores of Ulva pertusa (500 μg/ml), with spores of Ulva pertusa (1,000 μg/ml), in the data set with spores of Ulva pertusa (2,000 μg/ml) and in the data set on spores of Ulva pertusa (4,000 μg/ml) was “++++ (more than 95% inhibition of the mobility of spores)” in each case.
In the case of `CCCCCCCCCCCCCCCCCC(=O)OC` [methyl stearate], the LD50 in “in vivo” (in vivo, species and route not given) was greater than 17200 mg/kg. Moreover, the stimulus entry in the data set “in vivo” (suction, intake, epidermal absorption) was “gives no stimulus”.
Turning to `CCCCOC(=O)c1ccccc1C(=O)OCCCC` [dibutyl phthalate], the “death of the mice” value in the data set on mice was “no death”.
In the case of `CCCCCCCCOC(=O)c1ccccc1C(=O)OCCCCCCCC` [dioctyl phthalate], the “death of the mice” value with mice was “no death”.
`O=C(OC1CCCCC1)c1ccccc1C(=O)OC1CCCCC1` [dicyclohexyl phthalate]: the “death of the mice” value in the data set on mice was “no death”.
In the case of `CCCCCCCCCCCCCCCCCCCC` [B], the Mobility inhibitory activity result in the data set on spores of Ulva pertusa (125 μg/ml), with spores of Ulva pertusa (250 μg/ml), in the data set with spores of Ulva pertusa (500 μg/ml), in the data set on spores of Ulva pertusa (1,000 μg/ml), in the data set with spores of Ulva pertusa (2,000 μg/ml) and in the data set with spores of Ulva pertusa (4,000 μg/ml) was “++++ (more than 95% inhibition of the mobility of spores)” in each case.
`CC(C)CCCCCCOC(=O)c1ccccc1C(=O)OCCCCCCC(C)C` [G]: the Mobility inhibitory activity entry with spores of Ulva pertusa (125 μg/ml), in the data set with spores of Ulva pertusa (250 μg/ml), in the data set with spores of Ulva pertusa (500 μg/ml), in the data set with spores of Ulva pertusa (1,000 μg/ml), with spores of Ulva pertusa (2,000 μg/ml) and in the data set on spores of Ulva pertusa (4,000 μg/ml) was “++++ (more than 95% inhibition of the mobility of spores)” throughout.
`CCCCCCCCCCCCCCCC(=O)OC` [methyl palmitate] had an LD50 in data set [1] greater than 20000 mg/kg. The stimulus to skin result with human body was “only a very mild stimulus remained”. The LC50 in [2] is 1000 µg/mL (≈ 3.7 mM). The stimulus to eyes entry in the data set on eyes of rabbits is “only a transient stimulus phenomenon occurred”.
As for `CCCCCCCCCCCCCCCCCCCC` (single isomer, unassigned) [eicosane], in the data set with mice, the “death of the mice” value is recorded as “no death”.
As to `CCCCCCCCCCCCCCCC` [hexadecane], the “death of the mice” value in the data set on mice is reported as “no death”.
As to `CCCCCCCCCCCCCCCO` [D], the Mobility inhibitory activity result with spores of Ulva pertusa (125 μg/ml), in the data set on spores of Ulva pertusa (250 μg/ml), in the data set on spores of Ulva pertusa (500 μg/ml), with spores of Ulva pertusa (1,000 μg/ml), in the data set on spores of Ulva pertusa (2,000 μg/ml) and in the data set on spores of Ulva pertusa (4,000 μg/ml) was “++++ (more than 95% inhibition of the mobility of spores)” throughout.
Turning to `CCCCCCCCCCCCCCCCCC` [octadecane], the “death of the mice” value in the data set with mice is “no death”.
For `CCCCCCCCCCCCCCCCCCCCO` [C], the Mobility inhibitory activity result in the data set with spores of Ulva pertusa (125 μg/ml), with spores of Ulva pertusa (250 μg/ml), in the data set with spores of Ulva pertusa (500 μg/ml), with spores of Ulva pertusa (1,000 μg/ml), in the data set on spores of Ulva pertusa (2,000 μg/ml) and with spores of Ulva pertusa (4,000 μg/ml) was “++++ (more than 95% inhibition of the mobility of spores)” throughout.
